According to patent US20100331348A1, “TROPANE DERIVATIVES USEFUL AS PESTICIDES” (SYNGENTA CROP PROTECTION, INC., priority 2007, published 2010):
Where two headings read alike, the source gives them in different places.

Experiments:
[1] = test system: Erysiphe graminis f.sp. tritici; test: Erysiphe graminis f.sp. tritici (wheat powdery mildew) leaf disk assay; assay type: in vivo; settings: Blumeria graminis, foliar, 96 h, preventive, four days after inoculation, read-out: control of fungal infection, Erysiphe graminis fsp. tritici
Tetranychus urticae = settings: foliar, 192 h, read-out: control of Tetranychus urticae
Pyricularia oryzae = test: whole plant or invertebrate; assay type: in vivo; settings: foliar, 96 h
Aedes aegypti = Aedes aegypti (Yellow fever mosquito) larvae test; assay type: in vivo; settings: 48 h
[2] = test system: Puccinia recondita f.sp. tritici; test: Puccinia recondita f.sp. tritici (wheat brown rust) leaf disk assay; assay type: in vivo; settings: foliar, 216 h, preventive, nine days after inoculation, read-out: control of fungal infection, Puccinia recondita f.sp. tritici
Plasmopara viticola = Plasmopara viticola (downy mildew of grapevine) leaf disk assay; assay type: in vivo; settings: foliar, 168 h, preventive, seven days after inoculation, read-out: control of fungal infection, Plasmopara viticola
Phytophthora infestans = test: whole plant or invertebrate; assay type: in vivo; settings: foliar, 96 h, read-out: control of fungal infection, Phytophthora infestans
Plutella xylostella = Plutella xylostella (Diamond back moth) artificial diet test; settings: 120 h, read-out: control of Plutella xylostella
[3] = read-out: control of fungal infection, Pyricularia oryzae (at least 60% list)
[4] = read-out: control of fungal infection, Pyricularia oryzae (at least 80% list)

| SMILES | melting point [°C] | pest or weed control at 200 ppm [1] [%] | pest or weed control at 200 ppm (Tetranychus urticae) [%] | pest or weed control at 200 ppm (Pyricularia oryzae; [3]) [%] | pest or weed control at 200 ppm [2] [%] | also measured |
| --- | --- | --- | --- | --- | --- | --- |
| Cn1cc(C(=O)N2[C@@H]3CC[C@H]2CC(Oc2ccc(C(F)(F)F)cn2)C3)c(C(F)(F)F)c1 (stereo partly shown) [2.218] | 147 |  |  |  |  |  |
| Cn1cc(C(=O)N2[C@@H]3CC[C@H]2CC(Oc2ccc(C(F)(F)F)cn2)C3)c(C(F)(F)F)c1 (stereo partly shown) [2.223] | 153 |  |  |  |  |  |
| CCc1ncnc(N2[C@@H]3CC[C@H]2CC(Oc2nc(Br)ccc2Cl)C3)c1Cl (stereo partly shown) [Example 1.167] |  | ≥ 80 | ≥ 80 |  |  |  |
| Cc1nn(C)c2nccc(N3[C@@H]4CC[C@H]3CC(Oc3ncc(Cl)cc3F)C4)c12 (stereo partly shown) [Example 1.252] | 112 | ≥ 80 |  | ≥ 60 |  |  |
| N#Cc1ccc(OC2C[C@H]3CC[C@@H](C2)N3c2ncnc3sccc23)cc1F (stereo partly shown) [Example 1.259] |  |  | ≥ 80 |  | ≥ 80 | pest or weed control at 2 ppm (Aedes aegypti): ≥ 80% |
| CS(=O)(=O)OC1C[C@H]2CC[C@@H](C1)N2c1ncnc2sccc12 (stereo partly shown) [Example 2.10] | 135 | ≥ 80 |  |  |  |  |
| CCC(=O)c1ccc(OC2C[C@H]3CC[C@@H](C2)N3c2ncnc3sccc23)cc1 (stereo partly shown) [Example 2.37] |  | ≥ 80 | ≥ 80 |  |  |  |
| FC(F)(F)c1ccnc(OC2C[C@H]3CC[C@@H](C2)N3c2ncnc3sccc23)c1 (stereo partly shown) [Example 2.51] | 172 |  |  | ≥ 60 |  |  |
| O=C1c2ccccc2C(=O)N1OC1C[C@H]2CC[C@@H](C1)N2c1ncnc2sccc12 (stereo partly shown) [Example 2.64] | 190 |  |  | ≥ 60 | ≥ 80 | pest or weed control at 200 ppm (Pyricularia oryzae; [4]): ≥ 80% |
| FC(F)(F)c1ccnc(OC2C[C@H]3CC[C@@H](C2)N3c2ccncn2)c1 (stereo partly shown) [Example 2.87] | 108 |  |  | ≥ 60 |  |  |
| FC(F)(F)c1cccc(OC2C[C@H]3CC[C@@H](C2)N3c2cc(Cl)ncn2)n1 (stereo partly shown) [Example 2.90] | 136 | ≥ 80 |  |  |  |  |
| Cc1cc(N2[C@@H]3CC[C@H]2CC(Oc2cccc(C(F)(F)F)n2)C3)n2ncnc2n1 (stereo partly shown) [Example 2.101] | 212 |  |  |  |  | pest or weed control at 200 ppm (Plasmopara viticola): ≥ 80% |
| Cc1nn(C)c2nccc(N3[C@@H]4CC[C@H]3CC(Oc3nc(C(F)(F)F)cs3)C4)c12 (stereo partly shown) [Example 2.107] | 184 | ≥ 80 |  |  |  |  |
| Cc1noc2ncnc(N3[C@@H]4CC[C@H]3CC(Oc3cccc(C(F)(F)F)n3)C4)c12 (stereo partly shown) [Example 2.121] | 159 | ≥ 80 |  |  | ≥ 80 |  |
| Cc1cc(N2[C@@H]3CC[C@H]2CC(Oc2ccc(C(F)(F)F)cn2)C3)n2ncnc2n1 (stereo partly shown) [Example 2.139] | 240 | ≥ 80 |  | ≥ 60 |  |  |
| Cc1nn(C)c2nccc(N3[C@@H]4CC[C@H]3CC(Oc3ccc(C(F)(F)F)cn3)C4)c12 (stereo partly shown) [Example 2.194] |  |  | ≥ 80 |  |  |  |
| N#Cc1c(Cl)nsc1N1[C@@H]2CC[C@H]1CC(Oc1cc(C(F)(F)F)ccn1)C2 (stereo partly shown) [Example 2.196] | 103 | ≥ 80 |  |  |  |  |
| Cc1nsc(N2[C@@H]3CC[C@H]2CC(Oc2ccc(C(F)(F)F)cn2)C3)c1Cl (stereo partly shown) [Example 2.199] | 46 | ≥ 80 |  |  |  |  |
| Cc1nsc(N2[C@@H]3CC[C@H]2CC(Oc2ccc(C(F)(F)F)cn2)C3)n1 (stereo partly shown) [Example 2.204] | 169 |  |  |  | ≥ 80 |  |
| FC(F)(F)c1ccc(OC2C[C@H]3CC[C@@H](C2)N3c2ccnc3c(Cl)cccc23)nc1 (stereo partly shown) [Example 2.206] |  |  | ≥ 80 | ≥ 60 |  | pest or weed control at 200 ppm (Plasmopara viticola): ≥ 80% |
| Cn1nc(C(F)(F)F)cc1C(=O)N1[C@@H]2CC[C@H]1CC(Oc1cc(C(F)(F)F)ccn1)C2 (stereo partly shown) [Example 2.217] | 122 | ≥ 80 |  |  |  |  |
| CCc1ncnc(N2C3CCC2CC(=CC#N)C3)c1Cl [Example 3.1] | 73 |  |  |  | ≥ 80 |  |
| CCc1ncnc(N2C3CCC2CC(=Cc2ccccc2)C3)c1Cl [Example 3.6] |  |  | ≥ 80 | ≥ 60 |  | pest or weed control at 2 ppm (Aedes aegypti): ≥ 80%; pest or weed control at 200 ppm (Phytophthora infestans): ≥ 80%; pest or weed control at 200 ppm (Plutella xylostella): ≥ 80% |

| SMILES | melting point [°C] | pest or weed control at 200 ppm [1] [%] | pest or weed control at 200 ppm (Tetranychus urticae) [%] | pest or weed control at 200 ppm (Pyricularia oryzae; [3]) [%] | pest or weed control at 200 ppm [2] [%] | also measured |
| --- | --- | --- | --- | --- | --- | --- |
| CCOC(=O)C=C1CC2CCC(C1)N2c1ncnc2sccc12 [Example 3.34] | 101 |  |  | ≥ 60 | ≥ 80 | pest or weed control at 200 ppm (Pyricularia oryzae; [4]): ≥ 80%; pest or weed control at 200 ppm (Plasmopara viticola): ≥ 80% |
| CCc1ncnc(C(C)c2ncnc(N3C4CCC3CC(=NO)C4)c2Cl)c1Cl (stereo not shown) [Example 5.4] | 162 | ≥ 80 |  |  |  |  |
| CCc1ncnc(N2C3CCC2CC(=NOCc2ccc(C(C)C)cc2)C3)c1Cl [Example 5.20] |  | ≥ 80 | ≥ 80 |  | ≥ 80 | pest or weed control at 200 ppm (Plasmopara viticola): ≥ 80% |
| CCc1ncnc(N2C3CCC2CC(=NOCc2ccc(-c4ccccc4)cc2)C3)c1Cl [Example 5.22] |  | ≥ 80 | ≥ 80 |  | ≥ 80 |  |
| CCc1ncnc(N2C3CCC2CC(=NOCc2ccc(OC(F)(F)F)cc2)C3)c1Cl [Example 5.66] |  | ≥ 80 | ≥ 80 |  | ≥ 80 | pest or weed control at 200 ppm (Plutella xylostella): ≥ 80% |
| CCc1ncnc(N2C3CCC2CC(=NOCc2ccc(C(F)(F)F)c(F)c2)C3)c1Cl [Example 5.86] |  |  | ≥ 80 |  | ≥ 80 | pest or weed control at 200 ppm (Pyricularia oryzae; [4]): ≥ 80% |
| CCc1ncnc(N2C3CCC2CC(=NOCc2ccc(SC(F)(F)F)cc2)C3)c1Cl [Example 5.99] |  | ≥ 80 | ≥ 80 |  | ≥ 80 |  |
| c1ccc2cc(CON=C3CC4CCC(C3)N4c3ncnc4sccc34)ccc2c1 [Example 5.147] |  | ≥ 80 | ≥ 80 |  | ≥ 80 | pest or weed control at 2 ppm (Aedes aegypti): ≥ 80%; pest or weed control at 200 ppm (Phytophthora infestans): ≥ 80%; pest or weed control at 200 ppm (Plutella xylostella): ≥ 80% |
| CC(C)(C)c1ccc(CON=C2CC3CCC(C2)N3c2ncnc3sccc23)cc1 [Example 5.167] |  | ≥ 80 | ≥ 80 |  | ≥ 80 |  |
| FC(F)(F)c1ccc(ON=C2CC3CCC(C2)N3c2ncnc3sccc23)nc1 [Example 5.170] |  | ≥ 80 | ≥ 80 | ≥ 60 | ≥ 80 |  |
| Cc1ccc(CON=C2CC3CCC(C2)N3c2ncnc3sccc23)cc1C [Example 5.179] |  | ≥ 80 | ≥ 80 | ≥ 60 | ≥ 80 | pest or weed control at 2 ppm (Aedes aegypti): ≥ 80%; pest or weed control at 200 ppm (Plutella xylostella): ≥ 80% |
| Fc1ccc(CON=C2CC3CCC(C2)N3c2ncnc3sccc23)c(Cl)c1 [Example 5.192] |  |  | ≥ 80 | ≥ 60 |  | pest or weed control at 2 ppm (Aedes aegypti): ≥ 80%; pest or weed control at 200 ppm (Plutella xylostella): ≥ 80% |
| Cc1cc(C(F)(F)F)cc(ON=C2CC3CCC(C2)N3c2ncnc3sccc23)n1 [Example 5.196] | 167 | ≥ 80 |  |  | ≥ 80 |  |
| FC(F)(F)c1cnc(ON=C2CC3CCC(C2)N3c2ncnc3sccc23)c(Cl)c1 [Example 5.207] | 156 | ≥ 80 |  | ≥ 60 | ≥ 80 |  |
| FC(F)(F)Oc1ccc(CON=C2CC3CCC(C2)N3c2ncnc3sccc23)cc1 [Example 5.210] |  | ≥ 80 | ≥ 80 |  | ≥ 80 | pest or weed control at 2 ppm (Aedes aegypti): ≥ 80%; pest or weed control at 200 ppm (Phytophthora infestans): ≥ 80%; pest or weed control at 200 ppm (Plutella xylostella): ≥ 80% |
| Fc1c(Cl)cccc1CON=C1CC2CCC(C1)N2c1ncnc2sccc12 [Example 5.217] |  | ≥ 80 | ≥ 80 | ≥ 60 | ≥ 80 | pest or weed control at 2 ppm (Aedes aegypti): ≥ 80%; pest or weed control at 200 ppm (Pyricularia oryzae; [4]): ≥ 80%; pest or weed control at 200 ppm (Plutella xylostella): ≥ 80% |
| Fc1cc(F)c(CON=C2CC3CCC(C2)N3c2ncnc3sccc23)cc1F [Example 5.226] | 106 | ≥ 80 |  |  | ≥ 80 |  |
| FC(F)(F)c1ccc(-c2nc(CON=C3CC4CCC(C3)N4c3ncnc4sccc34)no2)cc1 [Example 5.260] |  | ≥ 80 | ≥ 80 |  | ≥ 80 |  |
| Cc1nn(C)c2nccc(N3C4CCC3CC(=NOc3ncc(C(F)(F)F)cc3Cl)C4)c12 [Example 5.261] | 153 | ≥ 80 |  |  |  |  |
| N#CCC1CC2CCC(C1)N2c1ncnc2sccc12 (stereo not shown) [Example 7.1] |  |  | ≥ 80 |  |  |  |
| OC1(CC#Cc2ccccc2)CC2CCC(C1)N2c1ncnc2sccc12 (stereo not shown) [Example 7.15] | 173 |  |  |  | ≥ 80 |  |
| CCc1ncnc(N2C3CCC2CC(O)(CC#C[Si](C)(C)C)C3)c1Cl (stereo not shown) [Example 7.34] | 85 |  |  | ≥ 60 |  |  |
